Patent US20150250769A1, “METHODS AND COMPOSITIONS FOR INHIBITING RHO/MRTF-MEDIATED DISEASES AND CONDITIONS” (THE REGENTS OF THE UNIVERSITY OF MICHIGAN, priority 2014, published 2015)
“Also recorded” adds a separate entry of the source.

Tests used:
[1] = tested on: Rho (MRTF/SRF-regulated gene transcription, SRE-Luciferase); details: Evelyn et al. 2007; cited from earlier work
peritoneal fibrosis = details: Sakai et al. 2013; cited from earlier work
cellular migration = experiment: Cellular migration; assay type: cell-based; details: FIG. 5
skin fibrosis = experiment: Bleomycin skin injury (dermal fibrosis) model; assay type: in vivo; details: mouse; 100 mg/kg
Source text: Mice are weighed once prior to study start. Dermal fibrosis is induced in Groups 2-5 by daily intradermal injections of bleomycin over 14 days. Group 1 will receive vehicle 1 (PBS) over the same days. Daily therapeutic dosing with either vehicle 2 or CCG-58150 by oral gavage coincide with the intradermal injection study days. Mice are anesthetized using isoflurane during intradermal injections. The back is shaved and the injection site ( 1 cm2) cleaned with three alternating passes of chlorhexidine and warm, sterile saline or water. The periphery of the injection site is circled using a […] marker as a visual aid. Bleomycin is dissolved in sterile PBS at a concentration of 1 mg/ml, sterile filtered, and frozen in aliquots appropriately sized for the daily injections prior to the start of the dosing period. 100 μl of bleomycin or PBS (Vehicle 1) is administered to anesthetized mice by intradermal injection using a 0.5 cc TB syringe with a 27 G needle. Following bleomycin or vehicle administration, test substance (CCG-58150) or vehicle 2 (20% DMSO/30% PEG/50% PBS) is administered by oral gavage at 10 μL/gram of body weight. […] Images are collected on an Evos microscope and skin thickness and intensity of fibrosis of two distinct images from each animal is analyzed using ImageJ. […]

Acute cellular toxicity = assay type: cell-based; details: FIG. 2B; compared with CCG-1423
[2] = tested on: COL1A2 and ACTA2 (αSMA) mRNA; experiment: LPA-induced COL1A2 and ACTA2 mRNA in NIH-3T3 cells; assay type: cell-based
Source text: (§1) A & B) CCG-203971 inhibits LPA-induced COL1A2 and ACTA2 (αSMA) mRNA in NIH-3T3 cells.

human dermal fibroblasts = experiment: Myofibroblast differentiation / αSMA staining in dermal fibroblasts (TGFβ-induced normal, SSc); assay type: cell-based; details: for myofibroblast differentiation / phenotype (αSMA): in vitro, TGFβ-stimulated normal human dermal fibroblasts and SSc fibroblasts; for potency to reduce alpha-SMA staining, human primary dermal fibroblasts: 72-hour assay
Description: B-D) Human dermal fibroblasts were treated with TGFβ (10 ng/ml) for 3 days with various concentrations of CCG-58150.
as §1

[3] = In vivo tolerability (general statement); details: compared with CCG-1423
[4] = tested on: Rho (MRTF/SRF-regulated gene transcription, SRE-Luciferase); experiment: SRE-Luciferase reporter, Rho inhibition; assay type: cell-based
Description: In the course of these studies, the rho transcription reporter method that uses the rho-specific SRE-Luciferase was developed. This transcriptional reporter method, described in detail therein, was used for screening a small chemical library for possible rho inhibitors (Evelyn et al., Mol Canc. Ther. 6:2249-60, 2007; herein incorporated by reference in its entirety). Additional inhibitors were identified as described below.
CCG-1423 was a cellular IC50 of ˜1 uM to inhibit SRE-Luciferase expression (Evelyn, C. R., Wade, S. M., Wang, Q., Wu, M., Iniguez-Lluhi, J. A., Merajver, S. D., and Neubig, R. R. 2007. CCG-1423: a small-molecule inhibitor of RhoA transcriptional signaling. Mol Cancer Ther 6:2249-2260). It has been used in many labs as a tool compound for blocking MRTF/SRF-regulated gene transcription (Sandbo et al., et al., 2011. Am J Physiol Lung Cell Mol Physiol 301:L656-666; Sandbo, et al., 2009. Am J Respir Cell Mol Biol 41:332-338; Evelyn, et al., 2007. Mol Cancer Ther 6:2249-2260; Sandbo et al., 2013. J Biol Chem 288:15466-15473; Prencipe et al., 2013. Prostate 73:743-753; Sakai et al., 2013. FASEB J 27:1830-1846; Buller et al., 2012. Glia 60:1906-1914; Chong et al., 2012. PLoS One 7:e40966; Jin et al., 2011. J Clin Invest 121:918-929; Mae et al., 2010. Biochem Biophys Res Commun 393:877-882; Evelyn et al., 2010. Bioorg Med Chem Lett 20:665-672; Lu et al., 2009. Curr Med Chem 16:1355-1365). CCG-1423 acts by preventing nuclear accumulation of MRTF (Evelyn et al, supra; Jin et al., supra).

[5] = Preliminary tolerability study in normal mice; assay type: in vivo; details: 10 mg/kg i.p. daily for 2-weeks
Description: The experiments shown in FIG. 4 are repeated CCG-58150 and derivatives thereof. A range of doses (0.1, 1, and 10 mg/kg) is used to increase the likelihood of finding a well-tolerated dose that is effective.

CTGF mRNA = CTGF mRNA by qRT-PCR in LPA-stimulated NIH3T3 cells; assay type: cell-based
[6] = Stability in liver microsomes; assay type: in vitro ADME

SMILES | IC50 [4] | further results
CC(ONC(=O)c1cc(C(F)(F)F)cc(C(F)(F)F)c1)C(=O)Nc1ccc(Cl)cc1 (stereo not shown) [CCG-1423] | – | reduction of SRF-mediated transcription versus ROCK inhibitors [1]: more effective than ROCK inhibitors; activity in peritoneal fibrosis model (peritoneal fibrosis): in vivo activity
O=C(Nc1ccc(Cl)cc1)C1CCCN(C(=O)c2cccc(-c3ccco3)c2)C1 (stereo not shown) [CCG-203971] | – | cellular migration (cellular migration): inhibition of cellular migration; fibrosis in bleomycin skin injury model (skin fibrosis): prevented fibrosis; also recorded: very strongly significant effect; also recorded: prevents skin fibrosis; acute cellular toxicity (Acute cellular toxicity): less acute cellular toxicity; also recorded: reduced acute cellular toxicity; hepatic clearance (In vivo pharmacokinetics; in vivo): rapid hepatic clearance; pharmacokinetics (overall) (In vivo pharmacokinetics; in vivo): poor pharmacokinetics; oral absorption (In vivo pharmacokinetics; in vivo, po): low oral absorption; LPA-induced COL1A2 and ACTA2 (αSMA) mRNA [2]: inhibits; potency relative to perfenidone (human dermal fibroblasts; FIG. 4C): 100 ×; myofibroblast differentiation / phenotype (αSMA) (human dermal fibroblasts): reverses the myofibroblast phenotype; also recorded: Suppression of myofibroblast activation; tolerability in vivo [3]: much better tolerated in vivo
c1ccc(-c2nnc(SCCC3OCCCO3)o2)cc1 [compound 20321] | > 100 µM | –
Cc1cccc(-c2nnc(SCCC(=O)O)o2)c1 [compound 58146] | – | cellular migration (cellular migration): inhibition of cellular migration; potency in SRE-luciferase ([4]; FIG. 2C, listed as CCG-58146): nM IC50; also recorded: markedly higher potency
O=C(O)CCSc1nnc(-c2ccc(Cl)cc2Cl)o1 [compound 58150] | 0.004 µM | cellular migration (cellular migration): inhibition of cellular migration; tolerability [5]: tolerated; potency in a 24-hour assay in NIH 3T3 cells (CTGF mRNA; 24-hour assay): nM potency; IC50 (CTGF mRNA; Mus musculus, FIG. 3, NIH3T3 cells stimulated with LPA, read-out: IC50, inhibition of expression of endogenous CTGF mRNA): 0.001 µM; blood levels 24 hours after a single oral dose relative to in vitro IC50 (In vivo pharmacokinetics; 24 hours, single oral dose): over 10 fold; pharmacokinetics (overall) (In vivo pharmacokinetics; in vivo): very good in vivo pharmacokinetics; potency to reduce alpha-SMA staining, human primary dermal fibroblasts (human dermal fibroblasts; listed as CCG-58150): fM-pM; potency to reduce alpha-SMA staining, human primary dermal fibroblasts (human dermal fibroblasts; listed as CCG-518150): fM-pM potency; myofibroblast differentiation / phenotype (αSMA) (human dermal fibroblasts): αSMA inhibition; myofibroblast differentiation / phenotype (αSMA) (human dermal fibroblasts; listed as CCG-58150): blocks myofibroblast differentiation at pM concentrations; maximum suppression, inhibition of % αSMA positive cells (human dermal fibroblasts; maximum effect): 60%; stability in liver microsomes [6]: highly favorable stability
COC(=O)CSc1nnc(-c2ccc(C)cc2)o1 [compound 105557] | 5.2 µM | –
COc1ccc(-c2nnc(SCCC(=O)O)n2C)cc1 [compound 107983] | > 100 µM | –
O=C(O)CCSc1nc2ccccc2n1Cc1ccccc1 [compound 111085] | > 100 µM | –
Cc1ccc(-c2nnc(SCC(=O)O)o2)cc1 [compound 114898] | 6.7 µM | –
O=C(O)CCSc1nnc(-c2cccc(Br)c2)o1 [compound 123853] | 6.4 µM | –
Cc1cccc(-c2nnc(SCC(=O)O)o2)c1 [compound 123860] | 43 µM | –
O=C(O)CCSc1nnc(-c2ccncc2)o1 [compound 123867] | > 100 µM | –
O=C(O)CCSc1nnc(-c2cccnc2)o1 [compound 123869] | 87 µM | –
Cc1occc1-c1nnc(SCCC(=O)O)o1 [compound 123873] | > 100 µM | –
Cc1cccc(-c2nnc(SCC(N)=O)o2)c1 [compound 211912] | > 100 µM | –
CCCN(CCC)C(=O)CSc1nnc(-c2cccc(C)c2)o1 [compound 211913] | > 100 µM | –
O=C(O)CCSc1nc(-c2ccccc2)cc(=O)[nH]1 [compound 211914] | > 100 µM | –
O=C(O)CSc1nnc(-c2ccc(Cl)cc2Cl)o1 [compound 215027] | > 100 µM | –
CCOC(=O)CSc1nnc(-c2ccc(Cl)cc2Cl)o1 [compound 215028] | > 100 µM | –
CC(C)(C)NC(=O)CSc1nnc(-c2ccc(Cl)cc2Cl)o1 [compound 215029] | > 100 µM | –
COc1ccc(-c2nnc(SCCC(=O)O)[nH]2)cc1 [compound 215104] | > 100 µM | –
COCCNC(=O)CCSc1nnc(-c2ccc(Cl)cc2Cl)o1 [compound 215160] | > 100 µM | –
COc1cc(C)ccc1-c1nnc(SCCC(=O)O)o1 [compound 215201] | 0.023 µM | –
O=C(O)CCOc1nnc(-c2ccc(Cl)cc2Cl)s1 [compound 215240] | 24 µM | –
O=C(O)CCCc1nnc(-c2ccc(Cl)cc2Cl)o1 [compound 222620] | > 100 µM | –
COc1c(Cl)ccc(-c2nnc(SCCC(=O)O)o2)c1Cl [compound 222623] | 0.0086 µM | –
COc1cc(Cl)cc(Cl)c1-c1nnc(SCCC(=O)O)o1 [compound 222687] | 10 µM | –
O=C(O)CCSc1nnc(-c2ccc(F)cc2Cl)o1 [compound 232002] | 0.025 µM | –
O=C(O)CCCCSc1nnc(-c2ccc(Cl)cc2Cl)o1 [compound 232503, 5-((5-(2,4-dichlorophenyl)-1,3,4-oxadiazol-2-yl)thio)pentanoic acid] | 0.003 µM | –
